Data as given in ChEMBL document CHEMBL4043144, “Design, synthesis and evaluation of 2,2-dimethyl-1,3-dioxolane derivatives as human rhinovirus 3C protease inhibitors” (Bioorg Med Chem Lett, 2017).

tested on: not listed separately; assay: Inhibition of recombinant N-terminal His-tagged HRV 3C protease expressed in Escherichia coli preincubated for 15 mins followed by LEVLFQGPSK substrate addition after 45 mins by reverse-phase HPLC analysis; design: species or system Human rhinovirus sp.

Row | IC50 [µM] | SMILES
1 | 10.6 | CC1(C)O[C@@H](C(=O)Nc2nc3ccccc3s2)[C@H](C(=O)N2CCN(c3ccccn3)CC2)O1
2 | 8.57 | CC1(C)O[C@@H](C(=O)Nc2nc3ccccc3s2)[C@H](C(=O)N2CCN(c3ccccc3)CC2)O1
3 | > 10 | Cc1cccc(CN2CCN(C(=O)[C@@H]3OC(C)(C)O[C@H]3C(=O)Nc3nc4ccccc4s3)CC2)c1
4 | 2.5 | CC1(C)O[C@@H](C(=O)Nc2nc3ccccc3s2)[C@H](C(=O)N2CCN(c3ccccc3C#N)CC2)O1
5 | > 10 | CC1(C)O[C@H](C(=O)Nc2nc3ccccc3s2)[C@@H](C(=O)N2CCN(c3ccccn3)CC2)O1
6 | 8.28 | COc1cccc(NCCNC(=O)[C@@H]2OC(C)(C)O[C@H]2C(=O)Nc2nc3ccccc3s2)c1
7 | > 10 | COc1cccc(NCCNC(=O)[C@H]2OC(C)(C)O[C@@H]2C(=O)Nc2nc3ccccc3s2)c1
8 | > 10 | CC1(C)O[C@H](C(=O)Nc2nc3ccccc3s2)[C@@H](C(=O)N2CCN(Cc3ccccc3)CC2)O1
9 | > 10 | CC1(C)O[C@H](C(=O)Nc2nc3ccccc3s2)[C@@H](C(=O)N2CCN(c3ccccc3C#N)CC2)O1
10 | > 10 | CC1(C)O[C@@H](C(=O)Nc2nc3ccccc3s2)[C@H](C(=O)N2CCN(Cc3ccccc3)CC2)O1
11 | > 10 | Cc1cccc(CN2CCN(C(=O)[C@H]3OC(C)(C)O[C@@H]3C(=O)Nc3nc4ccccc4s3)CC2)c1
12 | > 10 | COc1cccc(NCCNC(=O)[C@@H]2OC(C)(C)O[C@H]2C(=O)Nc2ccc3ccccc3c2)c1
13 | > 10 | CC1(C)O[C@H](C(=O)Nc2nc3ccccc3s2)[C@@H](C(=O)N2CCN(c3ccccc3)CC2)O1

tested on: Human rhinovirus sp.; assay: Inhibition of recombinant N-terminal His-tagged HRV 3C protease expressed in Escherichia coli at 10 uM preincubated for 15 mins followed by LEVLFQGPSK substrate addition after 45 mins by reverse-phase HPLC analysis relative to control

Row | inhibition [%] | SMILES
14 | 64.4 | CC1(C)O[C@@H](C(=O)Nc2nc3ccccc3s2)[C@H](C(=O)N2CCN(c3ccccn3)CC2)O1
15 | 69 | CC1(C)O[C@@H](C(=O)Nc2nc3ccccc3s2)[C@H](C(=O)N2CCN(c3ccccc3)CC2)O1
16 | 20.2 | Cc1cccc(CN2CCN(C(=O)[C@@H]3OC(C)(C)O[C@H]3C(=O)Nc3nc4ccccc4s3)CC2)c1
17 | 86 | CC1(C)O[C@@H](C(=O)Nc2nc3ccccc3s2)[C@H](C(=O)N2CCN(c3ccccc3C#N)CC2)O1
18 | 10.8 | CC1(C)O[C@H](C(=O)Nc2nc3ccccc3s2)[C@@H](C(=O)N2CCN(c3ccccn3)CC2)O1
19 | 62.2 | COc1cccc(NCCNC(=O)[C@@H]2OC(C)(C)O[C@H]2C(=O)Nc2nc3ccccc3s2)c1
20 | 43.6 | COc1cccc(NCCNC(=O)[C@H]2OC(C)(C)O[C@@H]2C(=O)Nc2nc3ccccc3s2)c1
21 | 20.8 | CC1(C)O[C@H](C(=O)Nc2nc3ccccc3s2)[C@@H](C(=O)N2CCN(Cc3ccccc3)CC2)O1
22 | 48.1 | CC1(C)O[C@H](C(=O)Nc2nc3ccccc3s2)[C@@H](C(=O)N2CCN(c3ccccc3C#N)CC2)O1
23 | 18.8 | CC1(C)O[C@@H](C(=O)Nc2nc3ccccc3s2)[C@H](C(=O)N2CCN(Cc3ccccc3)CC2)O1
24 | 34.3 | Cc1cccc(CN2CCN(C(=O)[C@H]3OC(C)(C)O[C@@H]3C(=O)Nc3nc4ccccc4s3)CC2)c1
25 | 44 | COc1cccc(NCCNC(=O)[C@@H]2OC(C)(C)O[C@H]2C(=O)Nc2ccc3ccccc3c2)c1
26 | 17.5 | CC1(C)O[C@H](C(=O)Nc2nc3ccccc3s2)[C@@H](C(=O)N2CCN(c3ccccc3)CC2)O1

tested on: Human rhinovirus sp.; assay: Inhibition of recombinant N-terminal His-tagged HRV 3C protease expressed in Escherichia coli at 100 uM preincubated for 15 mins followed by LEVLFQGPSK substrate addition after 45 mins by reverse-phase HPLC analysis relative to control

Row | inhibition [%] | SMILES
27 | 97.8 | CC1(C)O[C@@H](C(=O)Nc2nc3ccccc3s2)[C@H](C(=O)N2CCN(c3ccccn3)CC2)O1
28 | 100 | CC1(C)O[C@@H](C(=O)Nc2nc3ccccc3s2)[C@H](C(=O)N2CCN(c3ccccc3)CC2)O1
29 | 78.7 | Cc1cccc(CN2CCN(C(=O)[C@@H]3OC(C)(C)O[C@H]3C(=O)Nc3nc4ccccc4s3)CC2)c1
30 | 100 | CC1(C)O[C@@H](C(=O)Nc2nc3ccccc3s2)[C@H](C(=O)N2CCN(c3ccccc3C#N)CC2)O1
31 | 82.5 | CC1(C)O[C@H](C(=O)Nc2nc3ccccc3s2)[C@@H](C(=O)N2CCN(c3ccccn3)CC2)O1
32 | 99.9 | COc1cccc(NCCNC(=O)[C@@H]2OC(C)(C)O[C@H]2C(=O)Nc2nc3ccccc3s2)c1
33 | 85.2 | COc1cccc(NCCNC(=O)[C@H]2OC(C)(C)O[C@@H]2C(=O)Nc2nc3ccccc3s2)c1
34 | 56.4 | CC1(C)O[C@H](C(=O)Nc2nc3ccccc3s2)[C@@H](C(=O)N2CCN(Cc3ccccc3)CC2)O1
35 | 84.2 | CC1(C)O[C@H](C(=O)Nc2nc3ccccc3s2)[C@@H](C(=O)N2CCN(c3ccccc3C#N)CC2)O1
36 | 85.5 | CC1(C)O[C@@H](C(=O)Nc2nc3ccccc3s2)[C@H](C(=O)N2CCN(Cc3ccccc3)CC2)O1
37 | 85.3 | Cc1cccc(CN2CCN(C(=O)[C@H]3OC(C)(C)O[C@@H]3C(=O)Nc3nc4ccccc4s3)CC2)c1
38 | 80.6 | COc1cccc(NCCNC(=O)[C@@H]2OC(C)(C)O[C@H]2C(=O)Nc2ccc3ccccc3c2)c1
39 | 67.8 | CC1(C)O[C@H](C(=O)Nc2nc3ccccc3s2)[C@@H](C(=O)N2CCN(c3ccccc3)CC2)O1
